In US8383624B2 (Abbott Laboratories, priority 2009, dated 2013):

Target: T1, Cdc7 (BEV coexpressed huCDC7/DBF4) (Homo sapiens, UniProt O00311)
T1 construct: made in house; host or cells: baculovirus expression vector (BEV) system
Assay: Cdc7 enzyme inhibition assay ([33P]-ATP, biotinylated peptide substrate, FlashPlate)
Format: biochemical
Settings: Table 2; same assay as example 26
Protocol: Cdc7 (BEV coexpressed huCDC7/DBF4) is prepared internally. Cdc7 assays are conducted as follows with final concentrations as listed. In 384-well v-bottom polypropylene plates, 6 L compound (2% DMSO), is mixed with 6 µL of Cdc7 (2 μg/mL), and Jerini peptide substrate A-All (biotin-C6linker-TPSDSLIYDDGLS) (2 μM), followed by immediate initiation with 6 L […] (1 μM, 20 mCi/μmol) using a reaction buffer comprising 25 mM HEPES, pH 7.5, 1 mM DTT, 10 mM MgCl2, 100 μM Na3VO4, 0.075 mg/ml Triton X-100. Reactions are quenched after 1 hr by the addition of 90 L stop buffer (50 mM EDTA, 2M NaCl). 85 μL of the stopped reactions are transferred to 384-well streptavidin-coated plates (FlashPlate Plus, Perkin Elmer), incubated 30 minutes at room temperature and washed 3 times with 0.05% Tween-20/PBS using an ELX-405 automated plate washer (BioTek), and counted on a TopCount Scintillation Plate Reader (Packard). IC50 values are determined via non-linear regression fitting of enzyme inhibition data and corresponding Ki values are generated assuming ATP-competitive (equilibrium) inhibition and using the experimentally determined apparent ATP Km of 0.7 μM (as determined using the above assay condition, but varying ATP). Table 1 depicts enzyme inhibition data (Ki) for exemplary compounds. In Table 1, “A” represents a Ki of less than 10 nM, “B” represents a Ki of between 10 nM and 100 nM, and “C” represents a Ki of greater than 100 nM.
Table 2 depicts enzyme inhibition data (Ki) for examples 27-43 using the same assay as example 26. In Table 2, “A” represents a Ki of less than 10 nM, “B” represents a Ki of between 10 nM and 100 nM, and “C” represents a Ki of greater than 100 nM.

T1 sequence (O00311 whole entry): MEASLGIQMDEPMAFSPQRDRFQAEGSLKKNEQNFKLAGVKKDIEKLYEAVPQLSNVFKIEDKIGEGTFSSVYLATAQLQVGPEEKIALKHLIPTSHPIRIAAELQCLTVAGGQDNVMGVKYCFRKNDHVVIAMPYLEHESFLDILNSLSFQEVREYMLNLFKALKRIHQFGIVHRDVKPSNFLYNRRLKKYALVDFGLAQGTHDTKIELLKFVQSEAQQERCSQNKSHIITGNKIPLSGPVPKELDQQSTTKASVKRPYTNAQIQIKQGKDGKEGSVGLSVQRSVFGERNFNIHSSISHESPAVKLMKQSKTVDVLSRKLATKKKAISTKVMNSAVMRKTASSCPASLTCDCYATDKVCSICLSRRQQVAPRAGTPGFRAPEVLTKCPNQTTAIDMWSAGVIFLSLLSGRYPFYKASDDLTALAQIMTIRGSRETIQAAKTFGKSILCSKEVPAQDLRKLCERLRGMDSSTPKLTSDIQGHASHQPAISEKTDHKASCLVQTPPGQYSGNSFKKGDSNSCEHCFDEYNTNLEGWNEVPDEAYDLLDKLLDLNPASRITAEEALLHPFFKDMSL
T1 sequence (Q9UBU7 whole entry partner): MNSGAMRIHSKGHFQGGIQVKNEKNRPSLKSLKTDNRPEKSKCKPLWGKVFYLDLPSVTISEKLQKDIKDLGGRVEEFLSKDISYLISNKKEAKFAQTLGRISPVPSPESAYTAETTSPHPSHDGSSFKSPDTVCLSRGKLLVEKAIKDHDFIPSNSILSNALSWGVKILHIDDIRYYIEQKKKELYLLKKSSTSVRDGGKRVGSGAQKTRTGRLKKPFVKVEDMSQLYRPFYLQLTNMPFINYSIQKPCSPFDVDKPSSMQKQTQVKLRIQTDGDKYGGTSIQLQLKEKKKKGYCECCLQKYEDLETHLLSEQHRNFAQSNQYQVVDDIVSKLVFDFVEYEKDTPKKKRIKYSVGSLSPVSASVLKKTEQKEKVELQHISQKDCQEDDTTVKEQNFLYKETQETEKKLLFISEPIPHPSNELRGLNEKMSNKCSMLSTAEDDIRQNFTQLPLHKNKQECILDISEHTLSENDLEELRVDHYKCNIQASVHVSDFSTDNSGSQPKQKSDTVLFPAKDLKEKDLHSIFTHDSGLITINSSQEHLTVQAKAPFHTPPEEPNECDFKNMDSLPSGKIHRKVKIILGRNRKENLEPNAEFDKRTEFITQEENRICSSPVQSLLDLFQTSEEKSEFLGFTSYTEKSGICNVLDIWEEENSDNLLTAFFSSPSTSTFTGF

Row | SMILES | Ki [µM]
1 | Clc1cc(-c2c[nH]c3ncc(-c4ccccc4)nc23)cc(NC2CCCCC2)n1 [Example 38, 6-chloro-N-cyclohexyl-4-(2-phenyl-5H-pyrrolo[2,3-b]pyrazin-7-yl)pyridin-2-amine] | 0.01 to 0.1
2 | Clc1cc(-c2c[nH]c3ncc(Nc4ccccc4)nc23)cc(NC2CCCCC2)n1 [Example 39, 7-[2-chloro-6-(cyclohexylamino)pyridin-4-yl]-N-phenyl-5H-pyrrolo[2,3-b]pyrazin-2-amine] | 0.01 to 0.1
3 | Clc1cc(-c2c[nH]c3ncc(NCCCc4ccccc4)nc23)cc(NC2CCCCC2)n1 [Example 40, 7-[2-chloro-6-(cyclohexylamino)pyridin-4-yl]-N-(3-phenylpropyl)-5H-pyrrolo[2,3-b]pyrazin-2-amine] | 0.01 to 0.1
4 | COc1cc(N2CCC(N3CCN(C)CC3)CC2)ccc1Nc1cnc2[nH]cc(-c3cc(Cl)nc(NC4CCCCC4)c3)c2n1 [Example 42, 7-[2-chloro-6-(cyclohexylamino)pyridin-4-yl]-N-{2-methoxy-4-[4-(4-methylpiperazin-1-yl)piperidin-1-yl]phenyl}-5H-pyrrolo[2,3-b]pyrazin-2-amine] | < 0.01
5 | Clc1cc(-c2c[nH]c3ncc(/C=C/c4ccncc4)nc23)cc(NC2CCCCC2)n1 [Example 43, 6-chloro-N-cyclohexyl-4-{2-[(E)-2-(pyridin-4-yl)ethenyl]-5H-pyrrolo[2,3-b]pyrazin-7-yl}pyridin-2-amine] | < 0.01

The remaining lines, values ahead:

Row | Ki [µM] | SMILES
6 | < 0.01 | O=C(O)c1cnc2[nH]cc(-c3cc(Cl)nc(NC4CCCCC4)c3)c2n1 [Example 36, 7-[2-chloro-6-(cyclohexylamino)pyridin-4-yl]-5H-pyrrolo[2,3-b]pyrazine-2-carboxylic acid]
7 | < 0.01 | N#Cc1cnc2[nH]cc(-c3cc(Cl)nc(NC4CCCCC4)c3)c2n1 [Example 37, 7-[2-chloro-6-(cyclohexylamino)pyridin-4-yl]-5H-pyrrolo[2,3-b]pyrazine-2-carbonitrile]
8 | < 0.01 | Clc1cc(-c2c[nH]c3ncc(-c4cnccn4)nc23)cc(NC2CCCCC2)n1 [Example 41, 6-chloro-N-cyclohexyl-4-[2-(pyrazin-2-yl)-5H-pyrrolo[2,3-b]pyrazin-7-yl]pyridin-2-amine]
